Earlier results as cited in patent publication US20190008784A1, “NOVEL SECNIDAZOLE SOFT GELATIN CAPSULE FORMULATIONS AND USES THEREOF” (SYMBIOMIX THERAPEUTICS, LLC, priority 2017, published 2019).

How the values were obtained:
bacterial vaginosis [1] = details: 500 mg ovule formulation compared with 37.5 mg gel
bacterial vaginosis [2] = details: intravaginal 750 mg ovule compared with 500 mg ovule

Question: For `Cc1ncc([N+](=O)[O-])n1CCO` [metronidazole], which “Effectiveness in the treatment of bacterial vaginosis” value (bacterial vaginosis [1]) is on record?
Answer: significantly more effective

Question: And the Cure rates (bacterial vaginosis [2])?
Answer: higher cure rates
